In ChEMBL document CHEMBL6087462, “Cuminaldehyde Potentiates Antiproteolytic Peptide Efficacy via Parallel Pathways of Enhanced Inner Membrane-Damaging Activity and Inhibition of Bacterial Energy Metabolism” (J Med Chem, 2025):

Experiments:
Escherichia coli [1] = test: Synergistic antimicrobial activity against Escherichia coli 25922 assessed as fractional inhibitory concentration index by checkerboard broth microdilution assay; type: functional
Escherichia coli [2] = test: Synergistic antimicrobial activity against Escherichia coli 25922 assessed as fractional inhibitory concentration index in presence of perillaldehyde by checkerboard broth microdilution assay; type: functional
Escherichia coli [3] = test: Synergistic antimicrobial activity against Escherichia coli 25922 assessed as fractional inhibitory concentration index in presence of thymol by checkerboard broth microdilution assay; type: functional
Escherichia coli [4] = test: Synergistic antimicrobial activity against Escherichia coli 25922 assessed as fractional inhibitory concentration index in presence of carvacrol by checkerboard broth microdilution assay; type: functional
Escherichia coli [5] = test: Synergistic antimicrobial activity against Escherichia coli K88 assessed as fractional inhibitory concentration index in presence of citronellal by checkerboard broth microdilution assay; type: functional
Escherichia coli [6] = test: Synergistic antimicrobial activity against Escherichia coli K88 assessed as fractional inhibitory concentration index in presence of perillaldehyde by checkerboard broth microdilution assay; type: functional
Escherichia coli [7] = test: Synergistic antimicrobial activity against Escherichia coli K99 assessed as fractional inhibitory concentration index in presence of citronellal by checkerboard broth microdilution assay; type: functional
Escherichia coli [8] = test: Synergistic antimicrobial activity against Escherichia coli K99 assessed as fractional inhibitory concentration index in presence of thymol by checkerboard broth microdilution assay; type: functional
Escherichia coli [9] = test: Synergistic antimicrobial activity against Escherichia coli K99 assessed as fractional inhibitory concentration index in presence of carvacrol by checkerboard broth microdilution assay; type: functional
Escherichia coli [10] = test: Synergistic antimicrobial activity against Escherichia coli 078 assessed as fractional inhibitory concentration index in presence of carvacrol by checkerboard broth microdilution assay; type: functional, 78
Salmonella typhimurium [11] = test: Synergistic antimicrobial activity against Salmonella typhimurium 14028 assessed as fractional inhibitory concentration index in presence of perillaldehyde by checkerboard broth microdilution assay; type: functional, Salmonella enterica subsp. enterica serovar Typhimurium
Salmonella typhimurium [12] = test: Synergistic antimicrobial activity against Salmonella typhimurium 7731 assessed as fractional inhibitory concentration index in presence of perillaldehyde by checkerboard broth microdilution assay; type: functional, Salmonella enterica subsp. enterica serovar Typhimurium
Salmonella typhimurium [13] = test: Synergistic antimicrobial activity against Salmonella typhimurium 7731 assessed as fractional inhibitory concentration index in presence of carvacrol by checkerboard broth microdilution assay; type: functional, Salmonella enterica subsp. enterica serovar Typhimurium
[14] = Synergistic antimicrobial activity against Salmonella enterica subsp. enterica serovar Pullorum 7913 assessed as fractional inhibitory concentration index in presence of perillaldehyde by checkerboard broth microdilution assay; type: functional
[15] = Synergistic antimicrobial activity against Salmonella enterica subsp. enterica serovar Pullorum 7913 assessed as fractional inhibitory concentration index in presence of carvacrol by checkerboard broth microdilution assay; type: functional
Pseudomonas aeruginosa [16] = test: Synergistic antimicrobial activity against Pseudomonas aeruginosa 27853 assessed as fractional inhibitory concentration index in presence of cuminaldehyde by checkerboard broth microdilution assay; type: functional
Pseudomonas aeruginosa [17] = test: Synergistic antimicrobial activity against Pseudomonas aeruginosa 27853 assessed as fractional inhibitory concentration index in presence of citral by checkerboard broth microdilution assay; type: functional
Pseudomonas aeruginosa [18] = test: Synergistic antimicrobial activity against Pseudomonas aeruginosa 27853 assessed as fractional inhibitory concentration index in presence of perillaldehyde by checkerboard broth microdilution assay; type: functional
Pseudomonas aeruginosa [19] = test: Synergistic antimicrobial activity against Pseudomonas aeruginosa 27853 assessed as fractional inhibitory concentration index in presence of thymol by checkerboard broth microdilution assay; type: functional
Staphylococcus aureus [20] = test: Synergistic antimicrobial activity against Staphylococcus aureus 25923 assessed as fractional inhibitory concentration index in presence of cuminaldehyde by checkerboard broth microdilution assay; type: functional
Staphylococcus aureus [21] = test: Synergistic antimicrobial activity against Staphylococcus aureus 25923 assessed as fractional inhibitory concentration index in presence of citronellal by checkerboard broth microdilution assay; type: functional
Staphylococcus aureus [22] = test: Synergistic antimicrobial activity against Staphylococcus aureus 25923 assessed as fractional inhibitory concentration index in presence of thymol by checkerboard broth microdilution assay; type: functional
Staphylococcus aureus [23] = test: Synergistic antimicrobial activity against Staphylococcus aureus 29213 assessed as fractional inhibitory concentration index in presence of citral by checkerboard broth microdilution assay; type: functional
Staphylococcus aureus [24] = test: Synergistic antimicrobial activity against Staphylococcus aureus 29213 assessed as fractional inhibitory concentration index in presence of thymol by checkerboard broth microdilution assay; type: functional
[25] = tested on: Staphylococcus epidermidis; test: Synergistic antimicrobial activity against Staphylococcus epidermidis 12228 assessed as fractional inhibitory concentration index in presence of carvacrol by checkerboard broth microdilution assay; type: functional
Staphylococcus aureus [26] = test: Synergistic antimicrobial activity against Staphylococcus aureus 43300 assessed as fractional inhibitory concentration index in presence of cuminaldehyde by checkerboard broth microdilution assay; type: functional
Staphylococcus aureus [27] = test: Synergistic antimicrobial activity against Staphylococcus aureus 43300 assessed as fractional inhibitory concentration index in presence of citral by checkerboard broth microdilution assay; type: functional
Staphylococcus aureus [28] = test: Synergistic antimicrobial activity against Staphylococcus aureus 43300 assessed as fractional inhibitory concentration index in presence of perillaldehyde by checkerboard broth microdilution assay; type: functional
Enterococcus faecalis [29] = test: Synergistic antimicrobial activity against Enterococcus faecalis 29212 assessed as fractional inhibitory concentration index in presence of cuminaldehyde by checkerboard broth microdilution assay; type: functional
Enterococcus faecalis [30] = test: Synergistic antimicrobial activity against Enterococcus faecalis 29212 assessed as fractional inhibitory concentration index in presence of thymol by checkerboard broth microdilution assay; type: functional
Enterococcus faecalis [31] = test: Synergistic antimicrobial activity against Enterococcus faecalis 29212 assessed as fractional inhibitory concentration index in presence of carvacrol by checkerboard broth microdilution assay; type: functional
Escherichia coli [32] = test: Antimicrobial activity against Escherichia coli ATCC 25922 assessed as reduction in microbial growth by CLSI based broth microdilution method; type: functional
Staphylococcus aureus [33] = test: Antimicrobial activity against Staphylococcus aureus 43300 assessed as reduction in microbial growth by CLSI based broth microdilution method; type: functional
Escherichia coli [34] = test: Synergistic antimicrobial activity against Escherichia coli K99 assessed as fractional inhibitory concentration by checkerboard broth microdilution assay; type: functional
Salmonella typhimurium [35] = test: Synergistic antimicrobial activity against Salmonella typhimurium ATCC 14028 assessed as fractional inhibitory concentration by checkerboard broth microdilution assay; type: functional, Salmonella enterica subsp. enterica serovar Typhimurium
Escherichia coli [36] = test: Antimicrobial activity against Escherichia coli K88 assessed as reduction in microbial growth in presence of cuminaldehyde by CLSI based broth microdilution method; type: functional
[37] = Antimicrobial activity against Salmonella enterica subsp. enterica serovar Pullorum ATCC 7913 assessed as reduction in microbial growth in presence of cuminaldehyde by CLSI based broth microdilution method; type: functional
Staphylococcus aureus [38] = test: Antimicrobial activity against Staphylococcus aureus ATCC 25923 assessed as reduction in microbial growth in presence of cuminaldehyde by CLSI based broth microdilution method; type: functional
Enterococcus faecalis [39] = test: Antimicrobial activity against Enterococcus faecalis ATCC 29212 assessed as reduction in microbial growth in presence of cuminaldehyde by CLSI based broth microdilution method; type: functional
Escherichia coli [40] = test: Antimicrobial activity against Escherichia coli K88 assessed as cuminaldehyde MIC by CLSI based broth microdilution method; type: functional
Pseudomonas aeruginosa [41] = test: Antimicrobial activity against Pseudomonas aeruginosa ATCC 27853 assessed as cuminaldehyde MIC by CLSI based broth microdilution method; type: functional
Staphylococcus aureus [42] = test: Antimicrobial activity against Staphylococcus aureus ATCC 29213 assessed as cuminaldehyde MIC by CLSI based broth microdilution method; type: functional
[43] = tested on: Staphylococcus epidermidis; test: Antimicrobial activity against Staphylococcus epidermidis ATCC 12228 assessed as cuminaldehyde MIC by CLSI based broth microdilution method; type: functional

CC[C@H](C)[C@H](NC(=O)[C@@H](NC(=O)[C@@H](CCCNC(=N)N)NC(=O)[C@H](C)NC(=O)[C@H](C)NC(=O)[C@@H](N)Cc1cccc2ccccc12)[C@@H](C)CC)C(=O)N[C@@H](CC(C)C)C(=O)N[C@H](CCCNC(=N)N)C(=O)N[C@@H](Cc1c[nH]c2ccccc12)C(=O)N[C@H](CCCNC(=N)N)C(=O)N[C@@H](Cc1ccccc1)C(=O)N[C@@H](CCCNC(=N)N)C(=O)O
fractional inhibitory concentration index (FICI) (Escherichia coli [1]): 0.25
fractional inhibitory concentration index (FICI) (Escherichia coli [2]): 0.156
fractional inhibitory concentration index (FICI) (Escherichia coli [3]): 0.313
fractional inhibitory concentration index (FICI) (Escherichia coli [4]): 0.5
fractional inhibitory concentration index (FICI) (Escherichia coli [5]): 0.156
fractional inhibitory concentration index (FICI) (Escherichia coli [6]): 0.375
fractional inhibitory concentration index (FICI) (Escherichia coli [7]): 0.516
fractional inhibitory concentration index (FICI) (Escherichia coli [8]): 0.5
fractional inhibitory concentration index (FICI) (Escherichia coli [9]): 0.5
fractional inhibitory concentration index (FICI) (Escherichia coli [10]): 0.5
fractional inhibitory concentration index (FICI) (Salmonella typhimurium [11]): 0.254
fractional inhibitory concentration index (FICI) (Salmonella typhimurium [12]): 0.254
fractional inhibitory concentration index (FICI) (Salmonella typhimurium [13]): 0.5
fractional inhibitory concentration index (FICI) [14]: 0.375
fractional inhibitory concentration index (FICI) [15]: 0.625
fractional inhibitory concentration index (FICI) (Pseudomonas aeruginosa [16]): 0.156
fractional inhibitory concentration index (FICI) (Pseudomonas aeruginosa [17]): 0.141
fractional inhibitory concentration index (FICI) (Pseudomonas aeruginosa [18]): 0.141
fractional inhibitory concentration index (FICI) (Pseudomonas aeruginosa [19]): 0.25
fractional inhibitory concentration index (FICI) (Staphylococcus aureus [20]): 0.188
fractional inhibitory concentration index (FICI) (Staphylococcus aureus [21]): 0.25
fractional inhibitory concentration index (FICI) (Staphylococcus aureus [22]): 0.25
fractional inhibitory concentration index (FICI) (Staphylococcus aureus [23]): 0.385
fractional inhibitory concentration index (FICI) (Staphylococcus aureus [24]): 0.25
fractional inhibitory concentration index (FICI) [25]: 1
fractional inhibitory concentration index (FICI) (Staphylococcus aureus [26]): 0.375
fractional inhibitory concentration index (FICI) (Staphylococcus aureus [27]): 0.313
fractional inhibitory concentration index (FICI) (Staphylococcus aureus [28]): 0.75
fractional inhibitory concentration index (FICI) (Enterococcus faecalis [29]): 0.313
fractional inhibitory concentration index (FICI) (Enterococcus faecalis [30]): 0.75
fractional inhibitory concentration index (FICI) (Enterococcus faecalis [31]): 0.375
MIC (Escherichia coli [32]): 4 µg/mL
MIC (Staphylococcus aureus [33]): 8 µg/mL
FIC (Escherichia coli [34]): 0.25
FIC (Salmonella typhimurium [35]): 0.25
MIC (Escherichia coli [36]): 2 µg/mL
MIC [37]: 0.5 µg/mL
MIC (Staphylococcus aureus [38]): 8 µg/mL
MIC (Enterococcus faecalis [39]): 1 µg/mL
MIC (Escherichia coli [40]): 1020 µg/mL
MIC (Pseudomonas aeruginosa [41]): 512 µg/mL
MIC (Staphylococcus aureus [42]): 512 µg/mL
MIC [43]: 256 µg/mL
